In ChEMBL document CHEMBL5393444, “Sulfonamide derivatives as ctps1 inhibitors” (2022):
pIC50: −log10 of the molar value.

Legend:
[1] = organism: Homo sapiens; assay: Selectivity ratio of IC50 for human CTPS2 to IC50 for human CTPS1 by RapidFire/MS analysis
[2] = molecular target: T1, CTP synthase 1 (Homo sapiens, UniProt P17812); assay: Inhibition of C-terminal FLAG-His8-tagged full length human CTPS1 preincubated for 10 mins followed by substrate addition by ADP-Glo assay
T1 sequence (P17812 whole entry): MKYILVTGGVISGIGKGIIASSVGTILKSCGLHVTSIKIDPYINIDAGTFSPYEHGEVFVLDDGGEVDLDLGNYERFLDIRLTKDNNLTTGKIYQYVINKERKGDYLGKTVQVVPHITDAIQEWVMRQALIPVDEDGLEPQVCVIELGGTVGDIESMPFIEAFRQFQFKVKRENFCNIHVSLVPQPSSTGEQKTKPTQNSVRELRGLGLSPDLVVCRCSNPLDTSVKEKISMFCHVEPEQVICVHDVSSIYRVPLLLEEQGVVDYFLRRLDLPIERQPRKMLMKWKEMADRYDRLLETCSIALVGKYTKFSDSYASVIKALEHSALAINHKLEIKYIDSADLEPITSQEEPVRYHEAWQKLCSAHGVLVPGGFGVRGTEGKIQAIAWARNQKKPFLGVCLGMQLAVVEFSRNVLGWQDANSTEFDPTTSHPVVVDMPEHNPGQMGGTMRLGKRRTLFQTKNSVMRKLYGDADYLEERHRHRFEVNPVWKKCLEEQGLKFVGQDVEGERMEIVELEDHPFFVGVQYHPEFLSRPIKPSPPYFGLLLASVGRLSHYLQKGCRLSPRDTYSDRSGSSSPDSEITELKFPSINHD

Row | Ratio IC50 [1] | pIC50 [2] | SMILES
1 | 2 | ≥ 7.00 | CCOc1cncc(-c2ccc(NC(=O)C(C)(C)c3ccnc(NS(=O)(=O)C4CC4)n3)c(C#N)c2)n1
2 | > 60 | ≥ 7.00 | CCOc1cncc(-c2ccc(NC(=O)C(CC)c3cncc(NS(=O)(=O)C4CC4)n3)cc2)n1 (stereo unspecified)
3 | > 60 | ≥ 7.00 | CCOc1cncc(-c2ccc(C(=O)NCc3ccnc(NS(=O)(=O)C4CC4)n3)cc2)n1
4 | 2 | ≥ 7.00 | CCOc1cncc(-c2ccc(NC(=O)C(C)(C)c3ccnc(NS(=O)(=O)C4CC4)n3)c(F)c2)n1
5 | 30 | ≥ 7.00 | CCC(C(=O)Nc1ccc(-c2cncc(C(F)(F)F)n2)cn1)c1ccnc(NS(=O)(=O)C2CC2)n1 (stereo unspecified)
6 | 30 | ≥ 7.00 | CCOc1cncc(-c2ccc(NC(=O)Cc3ccnc(NS(=O)(=O)C4CC4)n3)cc2)n1
7 | > 60 | ≥ 7.00 | CCOc1cncc(-c2ccc(NC(=O)C3(c4ccnc(NS(=O)(=O)C5CC5)n4)CC3)cc2)n1
8 | > 60 | ≥ 7.00 | CCOc1cncc(-c2ccc(NC(=O)C(CCOC)c3ccnc(NS(=O)(=O)C4CC4)n3)nc2)n1 (stereo unspecified)
9 | > 60 | ≥ 7.00 | CCOc1cncc(-c2ccc(NC(=O)C(C)(C)c3cncc(NS(=O)(=O)C4CC4)n3)nc2)n1
10 | 2 | ≥ 7.00 | CCOc1cncc(-c2ccc(NC(=O)C(CC)c3ccnc(NS(=O)(=O)C4CC4)n3)c(C)c2)n1 (stereo unspecified)
11 | 30 | ≥ 7.00 | CCOc1cncc(-c2cnc(NC(=O)C(CC)c3ccnc(NS(=O)(=O)C4CC4)n3)c(F)c2)n1 (stereo unspecified)
12 | > 60 | ≥ 7.00 | CC(C)Oc1cncc(-c2ccc(NC(=O)C(C)(C)c3ccnc(NS(=O)(=O)C4CC4)n3)nc2)n1
13 | > 60 | ≥ 7.00 | CCOc1cncc(-c2ccc(NC(=O)C(CC)c3cncc(NS(=O)(=O)C4CC4)n3)nc2)n1 (stereo unspecified)
14 | 30 | ≥ 7.00 | CC(C)Oc1cncc(-c2ccc(NC(=O)Cc3ccnc(NS(=O)(=O)C4CC4)n3)c(F)c2)n1
15 | > 60 | ≥ 7.00 | CCOc1cncc(-c2ccc(NC(=O)C(F)(CC)c3ccnc(NS(C)(=O)=O)n3)nc2)n1 (stereo unspecified)
16 | > 60 | ≥ 7.00 | CCC(C(=O)Nc1ccc(-c2cncc(OCC(F)(F)F)n2)cc1F)c1ccnc(NS(=O)(=O)C2CC2)n1 (stereo unspecified)
17 | 30 | ≥ 7.00 | CC(C)Oc1cncc(-c2ccc(NC(=O)Cc3ccnc(NS(=O)(=O)C4CC4)n3)cc2)n1
18 | 30 | ≥ 7.00 | CCOc1cncc(-c2ccc(NC(=O)C(CC)c3cccc(NS(=O)(=O)C4CC4)n3)nc2)n1 (stereo unspecified)
19 | 2 | ≥ 7.00 | CCOc1cncc(-c2ccc(NC(=O)C(OC)c3ccnc(NS(=O)(=O)C4CC4)n3)cc2)n1 (stereo unspecified)
20 | > 60 | ≥ 7.00 | CCOc1cncc(-c2ccc(NC(=O)C3(c4ccnc(NS(=O)(=O)CC#N)n4)CCOCC3)nc2)n1
21 | > 60 | ≥ 7.00 | CCOc1cncc(-c2ccc(NC(=O)C3(c4ccnc(NS(=O)(=O)C5CC5)n4)CCC(F)(F)CC3)nc2)n1
22 | > 60 | ≥ 7.00 | CCOc1cncc(-c2ccc(NC(=O)C3(c4ccnc(NS(=O)(=O)C5CC5)n4)CCC4(CC3)OCCO4)nc2)n1
23 | > 60 | ≥ 7.00 | CCOc1cncc(-c2ccc(NC(=O)C(CC)c3ccnc(NS(=O)(=O)C4CC4)n3)nc2)n1 (stereo unspecified)
24 | > 60 | ≥ 7.00 | CCC(C(=O)Nc1ccc(-c2cncc(OCC(F)(F)F)n2)cc1)c1ccnc(NS(=O)(=O)C2CC2)n1 (stereo unspecified)
25 | > 60 | ≥ 7.00 | CCOc1cncc(-c2ccc(NC(=O)C(CCOC)c3ccnc(NS(=O)(=O)C4CC4)n3)c(F)c2)n1 (stereo unspecified)
26 | > 60 | – | CCOc1cncc(-c2ccc(NC(=O)C3(c4ccnc(NS(=O)(=O)C5CC5)n4)CCC(O)CC3)nc2)n1 (stereo in doubt)
27 | 2 | ≥ 7.00 | CCOc1cncc(-c2ccc(NC(=O)C(C)(C)c3ccnc(NS(=O)(=O)C4CC4)n3)cc2)n1
28 | 2 | ≥ 7.00 | CCOc1cncc(-c2cnc(NC(=O)C(CC)c3ccnc(NS(=O)(=O)C4CC4)n3)c(C)c2)n1 (stereo unspecified)

Row | Ratio IC50 [1] | pIC50 [2] | SMILES
29 | > 60 | – | CCOc1cncc(-c2ccc(NC(=O)C3(c4ccnc(NS(=O)(=O)C5CC5)n4)CCC(N(C)C)CC3)nc2)n1 (stereo in doubt; form 2)
30 | 2 | – | CCOc1cncc(-c2ccc(NC(=O)C(F)(CC)c3ccnc(NS(=O)(=O)C4CC4)n3)nc2)n1 (stereo in doubt; form 2)
31 | 2 | – | CCC(C(=O)Nc1ccc(-c2cncc(Cl)c2)cc1)c1ccnc(NS(=O)(=O)C2CC2)n1 (stereo unspecified)
32 | 2 | ≥ 7.00 | CC(C)Oc1cncc(-c2ccc(NC(=O)C(C)(C)c3ccnc(NS(=O)(=O)C4CC4)n3)c(F)c2)n1
33 | > 60 | ≥ 7.00 | CCC(C(=O)Nc1ccc(-c2cncc(OC(C)C)n2)cn1)c1ccnc(NS(=O)(=O)C2CC2)n1 (stereo unspecified)
34 | > 60 | ≥ 7.00 | CCOc1cncc(-c2ccc(NC(=O)C(C)(C)c3ccnc(NS(=O)(=O)C4CC4)n3)nc2)n1
35 | > 60 | ≥ 7.00 | CCOc1cncc(-c2ccc(C(=O)NC(CC)c3ccnc(NS(=O)(=O)C4CC4)n3)c(F)c2)n1 (stereo unspecified)
36 | > 60 | – | CCOc1cncc(-c2ccc(NC(=O)C3(c4ccnc(NS(=O)(=O)C5CC5)n4)CCC(N(C)C)CC3)nc2)n1 (stereo in doubt; form 1)
37 | > 60 | ≥ 7.00 | CCOc1cncc(-c2ccc(NC(=O)C(C)(CC)c3ccnc(NS(=O)(=O)C4CC4)n3)nc2)n1 (stereo unspecified)
38 | > 60 | ≥ 7.00 | CCOc1cncc(-c2ccc(NC(=O)C(C)(CCOC)c3cncc(NS(=O)(=O)C4CC4)n3)nc2)n1 (stereo unspecified)
39 | > 60 | ≥ 7.00 | CCOc1cncc(-c2ccc(NC(=O)C(C)(C)c3cncc(NS(=O)(=O)C4CC4)n3)cc2)n1
40 | > 60 | ≥ 7.00 | CCOc1cncc(-c2ccc(NC(=O)C3(c4ccnc(NS(=O)(=O)C5CC5)n4)CCCC3)nc2)n1
41 | > 60 | ≥ 7.00 | CCC(C(=O)Nc1ccc(-c2cncc(OC)n2)cn1)c1ccnc(NS(=O)(=O)C2CC2)n1 (stereo unspecified)
42 | 30 | ≥ 7.00 | CCOc1cncc(-c2ccc(NC(=O)C(CC)c3ccnc(NS(=O)(=O)C4CC4)n3)cc2)n1 (stereo unspecified)
43 | 30 | ≥ 7.00 | CCOc1cncc(-c2ccc(NC(=O)C(CCOC)c3ccnc(NS(=O)(=O)C4CC4)n3)cc2)n1 (stereo unspecified)
44 | 30 | – | CC(C)c1cncc(-c2ccc(NC(=O)C(C)(C)c3ccnc(NS(=O)(=O)C4CC4)n3)cc2)n1
45 | > 60 | ≥ 7.00 | CCOc1cncc(-c2ccc(NC(=O)C3(c4cncc(NS(=O)(=O)C5CC5)n4)CCOCC3)nc2)n1
46 | 2 | ≥ 7.00 | CCC(C(=O)Nc1ccc(-c2cncc(OC)n2)cc1F)c1ccnc(NS(=O)(=O)C2CC2)n1 (stereo unspecified)
47 | 2 | – | CCC(C(=O)Nc1ncc(-c2cncc(OC)n2)cc1F)c1ccnc(NS(=O)(=O)C2CC2)n1 (stereo unspecified)
48 | 2 | – | CC(C)(C(=O)Nc1ccc(-c2cncc(C3CC3)n2)cc1F)c1ccnc(NS(=O)(=O)C2CC2)n1
49 | > 60 | ≥ 7.00 | CCOc1cncc(-c2ccc(NC(=O)C3(c4ccnc(NS(=O)(=O)C5CC5)n4)CCC(=O)CC3)nc2)n1
50 | > 60 | ≥ 7.00 | CCOc1cncc(-c2ccc(NC(=O)C3(c4ccnc(NS(=O)(=O)C5CC5)n4)CCCC3)cc2)n1
51 | 2 | ≥ 7.00 | CCOc1cncc(-c2ccc(NC(=O)C(CC)c3ccnc(NS(=O)(=O)C4CC4)n3)c(F)c2)n1 (stereo unspecified)
52 | 30 | – | CC(C)(C(=O)Nc1ccc(-c2cncc(C3CC3)n2)cn1)c1ccnc(NS(=O)(=O)C2CC2)n1
53 | > 60 | ≥ 7.00 | CCOc1cncc(-c2ccc(NC(=O)C3(c4ccnc(NS(=O)(=O)C5CC5)n4)CCN(S(C)(=O)=O)CC3)nc2)n1
54 | > 60 | ≥ 7.00 | CCOc1cncc(-c2ccc(NC(=O)C3(c4ccnc(NS(=O)(=O)C5CC5)n4)CCOCC3)nc2)n1
55 | > 60 | ≥ 7.00 | CCOc1cncc(-c2ccc(NC(=O)C3(c4ccnc(NS(=O)(=O)C5CC5)n4)CCOCC3)c(F)c2)n1
